Assays:
[1] = test system: MIA-PACA2 pancreatic cancer cell lines; assay: Cell proliferation assay (CellTiter 96 AQueous One); format: cell-based; details: Homo sapiens, MIA PaCa-2; for IC50: MIA-PACA2, compound tested under both conditions, which assay gave the IC50 is not stated; for inhibition at 30 µM: MIA-PACA2
[2] = test system: MIA-PACA2 pancreatic cancer cell lines; assay: Cell proliferation assay, alternate assay conditions (DAPI fluorescence); format: cell-based; details: Homo sapiens, MIA PaCa-2; for inhibition at 10 µM: * = tested at 10 μM, alternate conditions, MIA-PACA2; for IC50: MIA-PACA2, same assay as the % inhibition (alternate conditions)
Description: Cell lines: Tumor-derived pancreatic cancer cell lines MIA-PACA2 were purchased from ATCC and grown in complete DMEM-High Glucose medium supplemented with penicillin (100 U/mL), streptomycin (100 μg/mL), and 10% heat-inactivated FBS at 37° C. in a humidified incubator with 5% CO2.
Method: Cells are plated at 4000 cells/well density in 96-wells plate. The next day tested small molecules are added to the cells in the final concentration of 10 μM in the presence of 0.3% DMSO and 10% FBS. After small molecules addition, cells are incubated for 4 days at 37° C. in a humidified incubator with 5% CO2. For IC50 value determination, serial dilutions of compounds were added to cells under the same conditions.
Assay: At the end of the incubation period, cell cultures are fixed with a 50-50 mixture (v/v) acetone-methanol for 10 minutes at −20° C., followed by rehydration in PBS for 10 minutes at room temperature. After rehydration, cells are stained with DAPI (1 μg/ml) in PBS for 10 minutes at room temperature, followed by 3 washes with PBS. After staining, DAPI fluorescence is recorded (358 nm excitation/461 nm emission) with the 96-well plate reader Molecular Devices Spectramax M3; degree of small mole-cule-dependent proliferation inhibition is calculated from raw data assuming No Serum cells value as 100%.

[3] = target: GTP binding domain of Ras; details: literature, kinetic and filter binding measurements with radiolabeled GDP and GTP; cited from earlier work

Compound | inhibition at 10 µM [2] [%] | other results
COCc1ccc(-c2csc3c(O)nc(-c4ccccn4)nc23)cc1F [drawing 1722] | 76 to 100 | IC50 [1]: < 100 nM; inhibition at 30 µM [1]: 76 to 100%
CC(C)COc1ccc(-c2csc3c(O)nc(-c4ccccn4)nc23)cn1 [drawing 1753] | 76 to 100 | IC50 [1]: 501 to 1000 nM; inhibition at 30 µM [1]: 76 to 100%
Oc1nc(-c2ccccn2)nc2c(-c3cccc(C(F)(F)F)c3)csc12 [drawing 1749] | 76 to 100 | IC50 [1]: 100 to 500 nM; inhibition at 30 µM [1]: 76 to 100%
Nc1nc(O)c2sc(-c3cccc(C(=O)NCc4cccc(O)n4)c3)cc2n1 [drawing 1848] | 1 to 25 | –
Cn1cnc(-c2nc(O)c3scc(-c4cccc(OC(F)(F)F)c4)c3n2)c1 [drawing 1908] | 76 to 100 | –
Cn1ccnc1-c1nc(O)c2scc(-c3cccc(OC(F)(F)F)c3)c2n1 [drawing 1905] | 76 to 100 | IC50 [2]: 100 to 500 nM
Cn1cnc(-c2nc(O)c3c(-c4ccccc4)c(-c4ccncc4)sc3n2)c1 [drawing 1830] | 76 to 100 | –
Cn1ccnc1-c1nc(O)c2scc(-c3ccccc3)c2n1 [drawing 1916] | 76 to 100 | –
COCCNc1nc(-c2nccn2C)nc2sc(-c3cccc(OC)c3)c(-c3ccccc3)c12 [drawing 1888] | 76 to 100 | –
Cc1sc2c(O)nc(-c3ccccn3)nc2c1-c1ccccc1Cl [drawing 1817] | 76 to 100 | –
Cn1cnc(-c2nc(O)c3sc(-c4ccncc4)c(-c4ccccc4)c3n2)c1 [drawing 1851] | 76 to 100 | –
NC(=O)C1CCCN1C(=O)c1cccc(-c2cc3nc(N)nc(O)c3s2)c1 (stereo not shown) [drawing 1846] | 51 to 75 | –
Cc1sc2c(O)nc(-c3ccccn3)nc2c1Br [drawing 1824] | 76 to 100 | –
Oc1nc(-c2ncccn2)nc2c(-c3cccc(C(F)(F)F)c3)csc12 [drawing 1910] | 76 to 100 | –
Cc1sc2c(O)nc(-c3nccn3C)nc2c1-c1ccccc1 [drawing 1896] | 76 to 100 | –
Cn1ccnc1-c1nc(O)c2scc(-c3cccc(C(F)(F)F)c3)c2n1 [drawing 1900] | 76 to 100 | IC50 [2]: > 1000 nM
Oc1nc(-c2ccccn2)nc(Oc2cccc(C(F)(F)F)c2)c1O [drawing 1860] | 76 to 100 | –
Oc1nc(-c2ccccn2)nc2c(C3CCCC3)csc12 [drawing 1812] | 76 to 100 | –
Oc1nc(-c2ccccn2)nc2c(CC3CCNC3)csc12 (stereo not shown) [drawing 1828] | 0 | –

Compound | inhibition at 10 µM [2] [%] | other results
COCCNc1nc(-c2cccc(N)n2)nc2sc(-c3ccccc3)c(-c3ccccc3)c12 [drawing 1893] | 76 to 100 | –
Cc1ccc(-c2csc3c(O)nc(-c4ccccn4)nc23)cc1 [drawing 1862] | 76 to 100 | –
Oc1nc(-c2ccccn2)nc2cc(-c3cccc(Br)c3)sc12 [drawing 1866] | 76 to 100 | –
Cc1sc2c(O)nc(-c3ccccn3)nc2c1C(=O)N1CCN(Cc2cccc(O)c2)CC1 [drawing 1809] | 25 to 50 | –
Cn1ccnc1-c1nc(O)c2scc(-c3ccc(C(C)(C)C)cc3)c2n1 [drawing 1921] | 76 to 100 | –
N#Cc1cccc(-c2csc3c(O)nc(-c4ccccn4)nc23)c1 [drawing 1800] | 76 to 100 | –
Oc1nc(-c2ccccn2)nc2cc(-c3ccccc3Cl)sc12 [drawing 1858] | 76 to 100 | –
Nc1nc(O)c2sc(-c3cccc(C(=O)NCc4ncc[nH]4)c3)cc2n1 [drawing 1847] | 1 to 25 | –
O=c1[nH]c(-c2ccccn2)nc2c([C@@H]3O[C@H](CO)[C@@H](O)[C@H]3O)csc12 [drawing 1829] | 76 to 100 | –
Cc1ccc(-c2cc3nc(-c4ccccn4)nc(O)c3s2)cc1 [drawing 1857] | 76 to 100 | –
CC(C)COc1ccc(-c2c(-c3ccccc3)sc3c(O)nc(-c4nccn4C)nc23)cn1 [drawing 1889] | 76 to 100 | IC50 [2]: 100 to 500 nM
Oc1nc(-c2ccncn2)nc2c(-c3cccc(C(F)(F)F)c3)csc12 [drawing 1909] | 76 to 100 | IC50 [2]: > 1000 nM
Cn1ccnc1-c1nc(O)c2sc(-c3ccccc3)c(-c3ccccc3)c2n1 [drawing 1890] | 51 to 75 | –
CCOCCNc1nc(-c2nccn2C)nc2sc(-c3ccccc3)c(-c3ccccc3)c12 [drawing 1877] | 76 to 100 | IC50 [2]: 501 to 1000 nM
Oc1nc(-c2ccccn2)nc2c1c(-c1ccccc1)nn2-c1ccccn1 [drawing 1841] | 76 to 100 | –
COc1cnc(CNC(=O)c2csc3c(O)nc(-c4ccccn4)nc23)[nH]c1=O [drawing 1822] | 51 to 75 | –
Oc1nc(-c2ccccn2)nc2cc(-c3ccccc3)sc12 [drawing 1864] | 76 to 100 | –
CC(C)Cc1csc2c(O)nc(-c3ccccn3)nc12 [drawing 1813] | 76 to 100 | –
COCCNc1nc(-c2nccn2C)nc2sc(-c3ccccc3)c(-c3ccc(OC)cc3)c12 [drawing 1891] | 76 to 100 | IC50 [2]: 501 to 1000 nM

Compound | inhibition at 10 µM [2] [%] | other results
COCC(C)Nc1nc(-c2nccn2C)nc2sc(-c3ccccc3)c(-c3ccccc3)c12 (stereo not shown) [drawing 1879] | 76 to 100 | IC50 [2]: 501 to 1000 nM
CC(CO)Nc1nc(-c2nccn2C)nc2sc(-c3ccccc3)c(-c3ccccc3)c12 (stereo not shown) [drawing 1880] | 76 to 100 | –
COc1ccc(COC[C@H]2O[C@@H](c3csc4c(=O)[nH]c(-c5ccccn5)nc34)[C@H](O)[C@@H]2O)cc1 [drawing 1835] | 1 to 25 | –
COc1cnc(CNC(=O)c2c(C)sc3c(O)nc(-c4ccccn4)nc23)[nH]c1=O [drawing 1825] | 0 | –
Cn1ccnc1-c1nc(O)c2sc(-c3ccccc3)c(-c3ccccc3Cl)c2n1 [drawing 1897] | 76 to 100 | IC50 [2]: 100 to 500 nM
OCC1(c2ccc(-c3nc(-c4ccccn4)nc(O)c3Oc3ccccc3)cc2)CC1 [drawing 1836] | 76 to 100 | –
CC(C)COc1ccc(-c2csc3c(O)nc(-c4cn(C)cn4)nc23)cn1 [drawing 1907] | 76 to 100 | –
Nc1nc2c(ncn2[C@@H]2O[C@H](COP(=O)(O)OP(=O)(O)O)[C@@H](O)[C@H]2O)c(=O)[nH]1 [GDP] | – | affinity for the GTP binding domain of Ras [3]: single to double digit picomolar
COC(=O)c1nc(-c2ccccn2)nc(O)c1O [drawing 1849] | 25 to 50 | –
CCC(C)Nc1nc(-c2ccccn2)nc2sc(-c3ccncc3)c(-c3ccccc3)c12 (stereo not shown) | 51 to 75 | –
Nc1nc(O)c2sc(-c3cccc(C(=O)NC4CCNC4=O)c3)cc2n1 (stereo not shown) [drawing 1844] | 0 | –
Cn1ccnc1-c1nc(O)c2scc(-c3cccc(Cl)c3)c2n1 [drawing 1919] | 76 to 100 | –
Oc1nc(-c2ccccn2)nc2c(-c3ccccn3)csc12 [drawing 1772] | 76 to 100 | IC50 [1]: > 1000 nM; inhibition at 30 µM [1]: 76 to 100%
CC(C)(C)c1sc2c(O)nc(-c3ccccn3)nc2c1Br [drawing 1856] | 76 to 100 | –
COCCNc1nc(-c2nccn2C)nc2sc(C3CCOCC3)c(-c3ccccc3)c12 [drawing 1892] | 76 to 100 | –
Oc1nc(-c2ccccn2)nc2c(C3CC3)csc12 [drawing 1820] | 76 to 100 | –
COCCNc1nc(-c2ccccn2)nc(-c2cccc(OCCN(C)C)c2)c1Oc1ccccc1 [drawing 1831] | 76 to 100 | –
Cn1cnc(-c2nc(O)c3c(-c4ccccc4)c(-c4ccc(CNC(=O)OC(C)(C)C)cc4)sc3n2)c1 [drawing 1839] | 25 to 50 | –
CC(O)CNc1nc(-c2nccn2C)nc2sc(-c3ccccc3)c(-c3ccccc3)c12 (stereo not shown) [drawing 1871] | 76 to 100 | –

Reference: patent US10940139B2, “Compounds that interact with the Ras superfamily for the treatment of cancers, inflammatory diseases, rasopathies, and fibrotic disease” (Shy Therapeutics LLC, priority 2017, dated 2021)
